ChEMBL document CHEMBL1151404, “Modification and evaluation of the potato disc assay and antitumor screening of euphorbiaceae seeds” (1982)

Columns and labels:
Assay type in all cases: functional
P388 = assay: Antitumor activity against mouse P388 cells xenografted mouse assessed as increase in life span relative to control
[1] = test system: Agrobacterium tumefaciens; assay: Antitumor activity against Agrobacterium tumefaciens B6-induced tumor formation at 10 ug/disk after 12 days by potato disk assay; conditions: B6, 288 h
[2] = test system: Agrobacterium tumefaciens; assay: Antitumor activity against Agrobacterium tumefaciens B6-induced tumor formation at 2.5 ug/disk after 12 days by potato disk assay; conditions: B6, 288 h
[3] = test system: Agrobacterium tumefaciens; assay: Antitumor activity against Agrobacterium tumefaciens B6-induced tumor formation at 5 ug/disk after 12 days by potato disk assay; conditions: B6, 288 h
[4] = test system: Agrobacterium tumefaciens; assay: Antitumor activity against Agrobacterium tumefaciens B6-induced tumor formation at 1.5 ug/disk after 12 days by potato disk assay; conditions: B6, 288 h

For COc1ccc(C[C@H]2C(=O)N[C@@H](C)C(=O)N(C)[C@@H]3C(=O)N(C)[C@@H](Cc4ccc(O)c(c4)Oc4ccc(cc4)[C@@H]3O)C(=O)N[C@@H](C)C(=O)N[C@@H](C)C(=O)N2C)cc1 [BOUVARDIN], which T/C (P388) is on record?
Its T/C is 188%.

And the inhibition at 10 µg/disc [1]?
The inhibition at 10 µg/disc was -40%.

And the inhibition at 2.5 µg/disc [2]?
Its inhibition at 2.5 µg/disc is 14%.

And the inhibition at 5 µg/disc [3]?
Its inhibition at 5 µg/disc is -15%.

What does the source list for COC(=O)C[C@](O)(CCCC(C)(C)O)C(=O)O[C@@H]1C(OC)=C[C@]23CCCN2CCc2cc4c(cc2[C@H]13)OCO4 [OMACETAXINE MEPESUCCINATE]?
T/C (P388): 238%; inhibition at 10 µg/disc [1]: -79%; inhibition at 2.5 µg/disc [2]: -72%; inhibition at 5 µg/disc [3]: -64%

With COc1cc2cc(c1Cl)N(C)C(=O)C[C@H](OC(=O)[C@H](C)N(C)C(=O)C(C)C)[C@]1(C)O[C@H]1[C@H](C)[C@@H]1C[C@@](O)(NC(=O)O1)[C@H](OC)/C=C/C=C(\C)C2OC (some centres not stated) [TREWIASINE] as the molecule, how does the inhibition at 1.5 µg/disc [4] read?
Its inhibition at 1.5 µg/disc is -100%.

And the T/C (P388)?
The T/C was 168%.

And the inhibition at 10 µg/disc [1]?
Its inhibition at 10 µg/disc is -100%.

What about the inhibition at 2.5 µg/disc [2] of the same molecule?
Its inhibition at 2.5 µg/disc is -100%.

And the inhibition at 5 µg/disc [3]?
The inhibition at 5 µg/disc was -100%.

How did the T/C (P388) turn out when CC[C@]1(O)C[C@H]2CN(CCc3c([nH]c4ccccc34)[C@@](C(=O)OC)(c3cc4c(cc3OC)N(C=O)[C@H]3[C@@](O)(C(=O)OC)[C@H](OC(C)=O)[C@]5(CC)C=CCN6CC[C@]43[C@@H]65)C2)C1 [VINCRISTINE] was run?
The T/C was 242%.

What about the inhibition at 10 µg/disc [1] of the same molecule?
The inhibition at 10 µg/disc was -44%.

What about the inhibition at 2.5 µg/disc [2] of the same molecule?
The inhibition at 2.5 µg/disc was -17%.

And the inhibition at 5 µg/disc [3]?
Its inhibition at 5 µg/disc is -36%.
